The text below walks through data of patent publication US5622972A, “Method for treating a mammal infected with respiratory syncytial virus” (priority 1996, dated 1997).

The nature of series [1]: Cytotoxicity in uninfected HEp-2 cells, single concentration of 200 μM replenished daily for 5 days. The settings on record: human, solvent PBS (ribavirin: water). It counts as cell-based. From the text:
(§1) The tetrazolium based cell viability assay is based upon the ability of mitochondrial dehydrogenase which is present in viable cells to catalyze the reduction of a yellow tetrazolium salt known as MTT [3-(4,5-dimethylthiazol-2-yl)-2,5-diphenylthtiazolium bromide] to a dark blue/purple formazon product, generally as described by K. Rubino et al., J. Virological Methods, 39, 55-67 (1992)
(§2) RSV infection results in a marked reduction in cell viability and thus a lowered rate of formazan production. The assay method gives a very low absorbance value (practically zero) in wells which contain virus-infected cells and no compound or a compound which lacks anti-RSV activity. Compounds which inhibit RSV replication should prevent cell death and will therefore result in an increased intensity of color of the formazan solution. The measurement of viral growth as a function of cell viability allows the assay to be used for establishing levels of compound cytotoxicity in uninfected cells within the same assay. Thus, the assay provides a rapid colorimetric method for measuring RSV specific cytopathic effect.
(§3) The HEp-2 cells and RSV strain A2 virus which are used in the assay are publicly available and were obtained from the American Tissue Culture Collection. HEp-2 cells correspond to ATCC accession no. CCL32; and Respiratory Syncytial Virus, strain A2 corresponds to ATCC accession no. VR-1302. Respiratory syncytial virus was grown (i.e., multiplied) and titered in HEp-2 cells.
The RSV inhibition assay was carried out as follows. The assay was performed in 96 well microtiter plates seeded with 2.5×10^4 cells per well. […] Detached cells were resuspended and carefully dispersed in Minimal Essential Medium (MEM) (JRH Biosciences cat. #210-3510) containing 2% FBS (fetal bovine serum) and the concentration of viable cells was determined by trypan blue exclusion. […]
The cell suspension was divided into a first portion to which respiratory syncytial virus (RSV A2) was added at a multiplicity of infection of 1, and a second portion to which no virus was added. […] A multiplicity of infection equal to 1 was selected based on the observation this concentration of virus is just sufficient to produce a cytopathic effect that essentially eliminated MTT metabolism in infected, untreated cells during the time course of the assay (determined previously by a viral dilution assay).
(§4) After the incubation period, MTT (Sigma Chemical Co., St. Louis, Mo., Cat. #M2128) was dissolved in serum free MEM to give a 3 mg/ml solution and 100 μl of MTT solution was added to each well and the plates further incubated for 2 hours at 37° C. […] The optical density of the formazan/isopropanol solution from each well was determined using a Dynatech MR5000 multiplate reader at 570 nm with a 630 nm reference. […]

The subject of another series is HEp-2 cells. Kind of series: Cytotoxicity in uninfected HEp-2 cells (MTT), same assay. It counts as cell-based. The settings on record: 5 day assay, drug added on day 1, 7200 min.
Source text: as §1
(§5) Formazan is only slightly soluble in aqueous solutions, and therefore appears as dark cell-associated crystals. The crystals may be readily solublized in an organic solvent and the absorbance of the resulting blue/purple solution may be quantified using a multi-well plate spectrophotometer.
as §2, §3
(§6) The RSV inhibition assay was carried out as follows. The assay was performed in 96 well microtiter plates seeded with 2.5×10^4 cells per well. To provide a sufficient number of cells to seed the plates, stock cultures of HEp-2 cells were first grown in tissue culture flasks to about 80-100% confluency. The cell layer was washed with room temperature PBS (without calcium and magnesium) and then trypsinized (JRH Biosciences cat. #59-22877P) in a minimal volume of trypsin solution at 37° C. to detach them from the growth surface. Detached cells were resuspended and carefully dispersed in Minimal Essential Medium (MEM) (JRH Biosciences cat. #210-3510) containing 2% FBS (fetal bovine serum) and the concentration of viable cells was determined by trypan blue exclusion. Cell density was adjusted to 2.5×10^5 viable cells/ml by further dilution in MEM+2% FBS.
(§7) Test compound(s) and positive control (ribavirin) were added and serially diluted in the microtiter plate to the desired concentrations (8 replicates/compound/concentration plus 8 control wells/plate which received no compound).
(§8) The cell suspension was divided into a first portion to which respiratory syncytial virus (RSV A2) was added at a multiplicity of infection of 1, and a second portion to which no virus was added. The virus-infected cell suspension was mixed by low speed vortexing and 100 μl of the virus-infected cell suspension was immediately added to half of the wells in the 96 well plate (corresponding to 4 replicates of each compound dilution). 100 μl of the virus-free cell suspension was added to the other half of the wells in the microtiter plate (corresponding to the other 4 replicates for each compound and dilution). A multiplicity of infection equal to 1 was selected based on the observation this concentration of virus is just sufficient to produce a cytopathic effect that essentially eliminated MTT metabolism in infected, untreated cells during the time course of the assay (determined previously by a viral dilution assay).
(§9) The plates were incubated at 37° C., 5% CO2 for 5 to 6 days. […]

Experiment in series [2]: as above
In kind it is cell-based. The settings on record: human, hep-2 cells.
Source text: as §1, §5, §2, §3, §6, §7, §8, §9

Series [3] deals with respiratory syncytial virus (RSV A2). Kind of series: RSV inhibition assay: tetrazolium (MTT) based cell viability assay in RSV-infected HEp-2 cells (serial dilutions). The settings on record: for pEC50: human respiratory syncytial virus.
Source text: as §1, §5
RSV infection results in a marked reduction in cell viability and thus a lowered rate of formazan production. […] The measurement of viral growth as a function of cell viability allows the assay to be used for establishing levels of compound cytotoxicity in uninfected cells within the same assay. Thus, the assay provides a rapid colorimetric method for measuring RSV specific cytopathic effect.
as §3, §6, §7
as §8, with “dilution).” for “dilution). A multiplicity of infection equal to 1 was selected based on the observation this concentration of virus is just sufficient to produce a cytopathic effect that essentially eliminated MTT metabolism in infected, untreated cells during the time course of the assay (determined previously by a viral dilution assay).”
The plates were incubated at 37° C., 5% CO2 for 5 to 6 days.
After the incubation period, MTT (Sigma Chemical Co., St. Louis, Mo., Cat. #M2128) was dissolved in serum free MEM to give a 3 mg/ml solution and 100 μl of MTT solution was added to each well and the plates further incubated for 2 hours at 37° C. The reaction was stopped by aspiration of the media to chemical waste, being careful not to remove the formazan crystals, and 200 μl of isopropanol was added to the wells to dissolve the crystals.

The conditions of series [4]: cited from earlier work.
Series [5] concerns respiratory syncytial virus (RSV A2). It counts as cell-based. The settings on record: human, hep-2 cells, 120 h, 200 µM.
Source text: as §1
RSV infection results in a marked reduction in cell viability and thus a lowered rate of formazan production. The assay method gives a very low absorbance value (practically zero) in wells which contain virus-infected cells and no compound or a compound which lacks anti-RSV activity. […]
The RSV inhibition assay was carried out as follows. […] Detached cells were resuspended and carefully dispersed in Minimal Essential Medium (MEM) (JRH Biosciences cat. #210-3510) containing 2% FBS (fetal bovine serum) and the concentration of viable cells was determined by trypan blue exclusion. […]
as §4

pEC50: −log10 of the molar value. Where “and” joins values, the source holds several entries; their conditions need not be identical. Identical values can stand only once. Like-named read-outs stand apart in the source and are kept apart here.

For orientation: CC50 means the concentration at which the toxic effect on the cells reaches its halfway point. By pEC50 is commonly meant −log10 of the EC50, conventionally taken in molar units. In turn, `CCCCN1C[C@H](O)[C@@H](O)[C@H](O)[C@H]1CO` [Ex. 6, 1,5-(Butylimino) -1,5-dideoxy-D-glucitol] gave a cytotoxicity at 120 h, 200 µM in series [1] of 17%. This compound also came in with a CC50 in the series with HEp-2 cells (solvent DMSO) of 156 µM. For the same compound, the 50% cytotoxic concentration (CC50) at 120 h in series [2] (solvent DMSO, 5 day assay, drug added on day 1) is 100 µM; in series [2] (solvent DMSO, 6 day assay, drug added on day 1, extrapolated), 365 µM; in series [2] (solvent PBS, 5 day assay, drug added on day 1, extrapolated) it was 76200 µM; in series [2] (solvent PBS, 6 day assay, drug added on day 1, extrapolated) it was 9400 µM. Also, the pEC50 in series [3] (HEp-2, 120 h, HEp-2, solvent PBS, 5 day assay, drug replenished daily, read-out: ~EC50) was 4.35; in series [3] (HEp-2, 120 h, HEp-2, solvent PBS, 5 day assay, drug replenished on day [number not given], read-out: ~EC50), 3.73; in series [3] (HEp-2, HEp-2, solvent DMSO, 6 day assay, drug added on day 1, extrapolated, read-out: ~EC50) it was 3.60; in series [3] (HEp-2, HEp-2, solvent PBS, 6 day assay, drug added on day 1, read-out: ~EC50) it was 3.37. Moreover, the CTI in series [3] (solvent PBS, 5 day assay, drug added on day 1, from extrapolated CC50 and EC50) is reported as 275.5; in series [3] (solvent PBS, 6 day assay, drug added on day 1, from extrapolated CC50, 7200 min), 21.8.

`OCC1C(O)C(O)C(O)CN1CCCc1ccccc1` [compound 43, 1,5-(3-Phenylpropylimino)-1,5-dideoxy-D-glucitol] had a cytotoxicity at 120 h, 200 µM in series [1] of 10%.

Consider `CCCCN1CC(OC(C)=O)C(OC(C)=O)C(OC(C)=O)C1COC(C)=O` [Ex. 7, 1,5-(Butylimino)-1,5-dideoxy-D-glucitol, tetraacetate], for which the cytotoxicity at 120 h, 200 µM in series [1] amounted to 11%. The “enzymatic conversion in vivo of prodrug” value in series [4] was “enzymatically converted in vivo to the compound of Ex. 6”.

`NC(=O)c1ncn([C@@H]2O[C@H](CO)[C@@H](O)[C@H]2O)n1` [ribavirin, 1-beta-D-ribofuranosyl-1H-1,2,4-triazole-3-carboxamide]: the cytotoxicity at 120 h, 200 µM in series [1] came to 65%. Besides, the “% CELL PROTECTION / % CYTOTOXICITY (CTI)” value in series [5] stood at 1.6. Also, the CC50 with HEp-2 cells (solvent water) is 32.4 µM and 62.8 µM and 52.4 µM. Further, the CC50 at 120 h in series [2] (solvent water, 5 day assay, drug added on day 1) turned out to be 38.3 µM; in series [2] (solvent water, 5 day assay, drug replenished daily), 40 µM; in series [2] (solvent water, 5 day assay, drug replenished on day [number not given]), 20.4 µM; in series [2] (solvent water, 6 day assay, drug added on day 1), 179 µM. Also, the pEC50 in series [3] (HEp-2, 120 h, HEp-2, solvent water, 5 day assay, drug replenished daily) was 7.00; in series [3] (HEp-2, 120 h, HEp-2, solvent water, 5 day assay, drug replenished on day [number not given]), 5.59; in series [3] (HEp-2, HEp-2, solvent water, 6 day assay, drug added on day 1), 4.72.
